Calls of active or inactive are those of the source. The calls are words filed in the database; no cut-off is given here.
Key:
CAL-27 [1] = test: Cytotoxicity against human CAL-27 cells assessed as reduction in cell viability incubated for 24 hrs by alamar blue assay; type: functional, cell-based; details: CAL-27, 24 h
[2] = Cytotoxicity against human normal oral epithelial cell assessed as reduction in cell viability incubated for 24 hrs by alamar blue assay; type: toxicity, cell-based; details: normal oral epithelial cells
CAL-27 [3] = test: Upregulation of hypoxia related gene in human CAL-27 cells at IC50 concentration incubated for 24 hrs by RNA sequencing analysis; type: functional, cell-based
CAL-27 [4] = test: Upregulation of MTORC1 signaling gene in human CAL-27 cells at IC50 concentration incubated for 24 hrs by RNA sequencing analysis; type: functional, cell-based
[5] = Induction of cell cycle arrest in human normal oral epithelial cell assessed as accumulation at G2/M phase at IC50 concentration incubated for 24 hrs by propidium iodide staining based flow cytometric analysis (reference value: 12.79 %); type: toxicity
CAL-27 [6] = test: Upregulation of p53 pathway in human CAL-27 cells at IC50 concentration incubated for 24 hrs by RNA sequencing analysis; type: functional, cell-based
CAL-27 [7] = test: Upregulation of IL2 STAT5 signaling gene in human CAL-27 cells at IC50 concentration incubated for 24 hrs by RNA sequencing analysis; type: functional, cell-based
[8] = Induction of cell cycle arrest in human normal oral epithelial cell assessed as accumulation at G1 phase at IC50 concentration incubated for 24 hrs by propidium iodide staining based flow cytometric analysis (reference value: 55.49 %); type: toxicity
CAL-27 [9] = test: Downregulation of MYC gene in human CAL-27 cells at IC50 concentration incubated for 24 hrs by RNA sequencing analysis; type: functional, cell-based
CAL-27 [10] = test: Cytotoxicity against human CAL-27 cells assessed as reduction in cell viability incubated for 48 hrs by alamar blue assay; type: functional, cell-based; details: CAL-27, 48 h
CAL-27 [11] = test: Downregulation of E2F gene in human CAL-27 cells at IC50 concentration incubated for 24 hrs by RNA sequencing analysis; type: functional, cell-based
CAL-27 [12] = test: Downregulation of KRAS signaling gene in human CAL-27 cells at IC50 concentration incubated for 24 hrs by RNA sequencing analysis; type: functional, cell-based
CAL-27 [13] = test: Upregulation of glycolysis gene in human CAL-27 cells at IC50 concentration incubated for 24 hrs by RNA sequencing analysis; type: functional, cell-based
CAL-27 [14] = test: Downregulation of interferon gamma gene in human CAL-27 cells at IC50 concentration incubated for 24 hrs by RNA sequencing analysis; type: functional, cell-based
CAL-27 [15] = test: Upregulation of KRAS signaling gene in human CAL-27 cells at IC50 concentration incubated for 24 hrs by RNA sequencing analysis; type: functional, cell-based
CAL-27 [16] = test: Downregulation of G2M checkpoint gene in human CAL-27 cells at IC50 concentration incubated for 24 hrs by RNA sequencing analysis; type: functional, cell-based
[17] = Induction of cell cycle arrest in human normal oral epithelial cell assessed as reduction in cells at S phase at IC50 concentration incubated for 24 hrs by propidium iodide staining based flow cytometric analysis (reference value: 31.85 %); type: toxicity; set-up: scale not given: the % may be the effect or the level left
CAL-27 [18] = test: Downregulation of mitotic spindle in human CAL-27 cells at IC50 concentration incubated for 24 hrs by RNA sequencing analysis; type: functional, cell-based
CAL-27 [19] = test: Upregulation of TNF-alpha signaling NF-kappaB gene in human CAL-27 cells at IC50 concentration incubated for 24 hrs by RNA sequencing analysis; type: functional, cell-based
CAL-27 [20] = test: Induction of cell cycle arrest in human CAL-27 cells assessed as decrease in cells at S phase at IC50 concentration incubated for 24 hrs by propidium iodide staining based flow cytometric analysis (reference value: 23.97 %); type: functional; set-up: scale not given: the % may be the effect or the level left
CAL-27 [21] = test: Induction of cell cycle arrest in human CAL-27 cells assessed as accumulation at G2/M phase at IC50 concentration incubated for 24 hrs by propidium iodide staining based flow cytometric analysis (reference value: […]); type: functional
CAL-27 [22] = test: Antimigratory activity against human CAL-27 cells assessed as reduction in gap closure at 14 uM after 24 hrs by scratch wound healing assay (reference value: 65.2%); type: functional; set-up: scale not given: the % may be the effect or the level left
CAL-27 [23] = test: Upregulation of apoptosis gene in human CAL-27 cells at IC50 concentration incubated for 24 hrs by RNA sequencing analysis; type: functional, cell-based
CAL-27 [24] = test: Cytotoxicity against human CAL-27 cells assessed as reduction in cell viability incubated for 72 hrs by alamar blue assay; type: functional, cell-based; details: CAL-27, 72 h
CAL-27 [25] = test: Upregulation of myogenesis gene in human CAL-27 cells at IC50 concentration incubated for 24 hrs by RNA sequencing analysis; type: functional, cell-based
CAL-27 [26] = test: Upregulation of epithelial mesenchymal gene in human CAL-27 cells at IC50 concentration incubated for 24 hrs by RNA sequencing analysis; type: functional, cell-based
CAL-27 [27] = test: Downregulation of estrogen response gene in human CAL-27 cells at IC50 concentration incubated for 24 hrs by RNA sequencing analysis; type: functional, cell-based
CAL-27 [28] = test: Antimigratory activity against human CAL-27 cells at 14 uM after 24 hrs by scratch wound healing assay; type: functional
CAL-27 [29] = test: Antimigratory activity against human CAL-27 cells assessed as reduction in number of colonies at 14 uM replaced with fresh medium for every 2 days for 10 days by crystal violet staining based inverted microscopic analysis (reference value: 234); type: functional; details: time 10 day
CAL-27 [30] = test: Downregulation of MTORC1 signaling gene in human CAL-27 cells at IC50 concentration incubated for 24 hrs by RNA sequencing analysis; type: functional, cell-based
CAL-27 [31] = test: Induction of cell cycle arrest in human CAL-27 cells assessed as accumulation at G1 phase at IC50 concentration incubated for 24 hrs by propidium iodide staining based flow cytometric analysis (reference value: 61.61 %); type: functional

## C/C(=C\c1ccccc1)c1nc2ccccc2c(=O)[nH]1
CAL-27 [1]
  IC50: 8.6 µM
[2]
  IC50 at 24 h: 15 µM

## O=c1[nH]c(/C=C/c2ccc(Cl)cc2)nc2ccccc12
CAL-27 [1]
  IC50: 15.6 µM
[2]
  IC50 at 24 h: 17 µM

## N#Cc1ccc(/C=C/c2nc3ccccc3c(=O)[nH]2)cc1
CAL-27 [1]
  IC50: 17 µM
[2]
  IC50 at 24 h: 25 µM

## O=c1[nH]c(/C=C/c2cccs2)nc2ccccc12
CAL-27 [1]
  IC50: 11.3 µM
[2]
  IC50 at 24 h: 16.2 µM

## COc1ccc(/C=C/c2nc3ccccc3c(=O)[nH]2)cc1
CAL-27 [1]
  IC50: 14 µM
[2]
  IC50 at 24 h: 13 µM

## CN(C)c1ccc(/C=C/c2nc(O)c3ccccc3n2)cc1
CAL-27 [1]
  IC50: 13.6 µM
[2]
  IC50 at 24 h: 31 µM

## O=c1[nH]c(/C=C/c2c(F)c(F)c(F)c(F)c2F)nc2ccccc12
CAL-27 [1]
  IC50: 13.6 µM
[2]
  IC50 at 24 h: 17 µM

## O=c1[nH]c(/C=C/c2ccc(F)cc2)nc2ccccc12
CAL-27 [3]
  Activity: Active
CAL-27 [4]
  Activity: Active
[5]
  Activity: 13.79%
CAL-27 [6]
  Activity: Active
CAL-27 [7]
  Activity: Active
[8]
  Activity: 55.99%
CAL-27 [9]
  Activity: Active
CAL-27 [10]
  IC50: 10 µM
CAL-27 [11]
  Activity: Active
CAL-27 [12]
  Activity: Active
CAL-27 [13]
  Activity: Active
CAL-27 [14]
  Activity: Active
CAL-27 [15]
  Activity: Active
CAL-27 [16]
  Activity: Active
[17]
  Activity: 30.19%
CAL-27 [18]
  Activity: Active
CAL-27 [1]
  IC50: 12.9 µM
CAL-27 [19]
  Activity: Active
CAL-27 [20]
  Activity: 9.76%
CAL-27 [21]
  Activity: 14.24%
CAL-27 [22]
  Activity: 36%
CAL-27 [23]
  Activity: Active
CAL-27 [24]
  IC50: 8 µM
CAL-27 [25]
  Activity: Active
CAL-27 [26]
  Activity: Active
CAL-27 [27]
  Activity: Active
CAL-27 [28]
  Activity: 64%
CAL-27 [29]
  Activity: 158
[2]
  IC50 at 24 h: 41.4 µM
CAL-27 [30]
  Activity: Active
CAL-27 [31]
  Activity: 76.12%

## O=c1[nH]c(/C=C/c2cccc(F)c2)nc2ccccc12
CAL-27 [1]
  IC50: 16 µM
[2]
  IC50 at 24 h: 26 µM

## Cc1ccc(/C=C/c2nc(O)c3ccccc3n2)cc1
CAL-27 [1]
  IC50: 14.6 µM
[2]
  IC50 at 24 h: 14 µM

## O=c1[nH]c(/C=C/c2ccc([N+](=O)[O-])cc2)nc2ccccc12
CAL-27 [1]
  IC50: 16 µM
[2]
  IC50 at 24 h: 12 µM

Source: ChEMBL document CHEMBL5252579, “Discovery of fluorinated 2‑Styryl 4(3H)-quinazolinone as potential therapeutic hit for oral cancer” (Bioorg Med Chem, 2023)
